Read-outs that look alike come from different tables or passages of the source.
Columns and labels:
RPMI-8226 (Leukemia) = assay: NCI-60 screen (SRB, 48 h); details: Homo sapiens
CNS cancer subpanel = assay: NCI-60 screen, subpanel; details: Homo sapiens
M14 (Melanoma) = assay: NCI-60 screen (SRB, 48 h); details: Homo sapiens
[1] = test system: NCI-H226 (NSC lung cancer); assay: NCI-60 screen (SRB, 48 h); details: Homo sapiens
HOP-92 (NSC lung cancer) = assay: NCI-60 screen (SRB, 48 h); details: Homo sapiens
UACC-257 (Melanoma) = assay: NCI-60 screen (SRB, 48 h); details: Homo sapiens
OVCAR-5 (Ovarian cancer) = assay: NCI-60 screen (SRB, 48 h); details: Homo sapiens
U251 (CNS cancer) = assay: NCI-60 screen (SRB, 48 h); details: Homo sapiens
K-562 (Leukemia) = assay: NCI-60 screen (SRB, 48 h); details: Homo sapiens, K562
OVCAR-8 (Ovarian cancer) = assay: NCI-60 screen (SRB, 48 h); details: Homo sapiens
MALME-3M (Melanoma) = assay: NCI-60 screen (SRB, 48 h); details: Homo sapiens
LOX IMVI (Melanoma) = assay: NCI-60 screen (SRB, 48 h); type: cell-based; details: Homo sapiens
SK-OV-3 (Ovarian cancer) = assay: NCI-60 screen (SRB, 48 h); details: Homo sapiens
SK-MEL-28 (Melanoma) = assay: NCI-60 screen (SRB, 48 h); details: Homo sapiens
[2] = test system: MDA-MB-31/ATCC (Breast cancer); assay: NCI-60 screen (SRB, 48 h); details: Homo sapiens
[3] = test system: panel of approximately 60 cancer cell lines; assay: NCI-60 screen (SRB, 48 h), full panel
SF-539 (CNS cancer) = assay: NCI-60 screen (SRB, 48 h); details: Homo sapiens
SN12C (Renal cancer) = assay: NCI-60 screen (SRB, 48 h); details: Homo sapiens
[4] = test system: NCI-H23 (NSC lung cancer); assay: NCI-60 screen (SRB, 48 h); details: Homo sapiens
OVCAR-4 (Ovarian cancer) = assay: NCI-60 screen (SRB, 48 h); type: cell-based; details: Homo sapiens
SK-MEL-2 (Melanoma) = assay: NCI-60 screen (SRB, 48 h); details: Homo sapiens
HS 578T (Breast cancer) = assay: NCI-60 screen (SRB, 48 h); details: Homo sapiens
Leukemia subpanel = assay: cells; details: Homo sapiens
HCT-15 (Colon cancer) = assay: NCI-60 screen (SRB, 48 h); details: Homo sapiens
MDA-MB-435 (Melanoma) = assay: NCI-60 screen (SRB, 48 h); type: cell-based; details: Homo sapiens
[5] = test system: NCI/ADR-RES (Ovarian cancer); assay: NCI-60 screen (SRB, 48 h); details: Homo sapiens
HCC-2998 (Colon cancer) = assay: NCI-60 screen (SRB, 48 h)

C=C(C)[C@@H]1CCC=C2CC[C@]3(C)[C@H](CC[C@@H]4[C@@]5(C)CCCNC(C)(C)[C@@H]5CC[C@]43C)[C@H]21 [Compound 8]
GI50 (RPMI-8226 (Leukemia); RPMI-8226): 2.26 µM
IC (TGI) (RPMI-8226 (Leukemia); RPMI-8226, 48 h, read-out: TGI): 4.73 µM
IC (TGI) (CNS cancer subpanel; 48 h, read-out: TGI MG_MID): 3.31 µM
GI50 (CNS cancer subpanel; read-out: GI50 MG_MID): 1.79 µM
CC50 (CNS cancer subpanel; read-out: LC50 MG_MID): 5.97 µM
GI50 (M14 (Melanoma); M14): 1.89 µM
IC (TGI) (M14 (Melanoma); M14, 48 h, read-out: TGI): 3.38 µM
GI50 ([1]; NCI-H226): 1.97 µM
IC (TGI) ([1]; NCI-H226, 48 h, read-out: TGI): 3.81 µM
GI50 (HOP-92 (NSC lung cancer); HOP-92): 1.37 µM
IC (TGI) (HOP-92 (NSC lung cancer); HOP-92, 48 h, read-out: TGI): 2.77 µM
CC50 (HOP-92 (NSC lung cancer); HOP-92, read-out: LC50): 5.61 µM
GI50 (UACC-257 (Melanoma); UACC-257): 2.19 µM
IC (TGI) (UACC-257 (Melanoma); UACC-257, 48 h, read-out: TGI): 4.29 µM
CC50 (UACC-257 (Melanoma); UACC-257, read-out: LC50): 8.38 µM
GI50 (OVCAR-5 (Ovarian cancer); OVCAR-5): 1.75 µM
IC (TGI) (OVCAR-5 (Ovarian cancer); OVCAR-5, 48 h, read-out: TGI): 3.32 µM
GI50 (U251 (CNS cancer); U-251): 1.76 µM
IC (TGI) (U251 (CNS cancer); U-251, 48 h, read-out: TGI): 3.26 µM
CC50 (U251 (CNS cancer); U-251, read-out: LC50): 6.07 µM
GI50 (K-562 (Leukemia)): 0.32 µM
GI50 (OVCAR-8 (Ovarian cancer); OVCAR-8): 1.99 µM
IC (TGI) (OVCAR-8 (Ovarian cancer); OVCAR-8, 48 h, read-out: TGI): 3.94 µM
CC50 (OVCAR-8 (Ovarian cancer); OVCAR-8, read-out: LC50): 7.79 µM
GI50 (MALME-3M (Melanoma)): 1.7 µM
IC (TGI) (MALME-3M (Melanoma); 48 h, read-out: TGI): 3.46 µM
IC (TGI) (LOX IMVI (Melanoma); 48 h): 3.16 µM
activity at 10 µM (LOX IMVI (Melanoma); 48 h, 1 dose 10 µM, read-out: Growth % of the Most Sensitive Cell Lines): -99.5%
GI50 (LOX IMVI (Melanoma); read-out: GI50): 1.67 µM
GI50 (SK-OV-3 (Ovarian cancer); SK-OV-3): 1.81 µM
IC (TGI) (SK-OV-3 (Ovarian cancer); SK-OV-3, 48 h, read-out: TGI): 3.37 µM
CC50 (SK-OV-3 (Ovarian cancer); SK-OV-3, read-out: LC50): 6.28 µM
GI50 (SK-MEL-28 (Melanoma); SK-MEL-28): 1.81 µM
IC (TGI) (SK-MEL-28 (Melanoma); SK-MEL-28, 48 h, read-out: TGI): 3.35 µM
CC50 (SK-MEL-28 (Melanoma); SK-MEL-28, read-out: LC50): 6.18 µM
GI50 [2]: 1.81 µM
IC (TGI) ([2]; 48 h, read-out: TGI): 3.35 µM
CC50 ([2]; read-out: LC50): 6.2 µM
Positive Cytostatic Effect (cell lines with percent growth 0 to 50 / total) ([3]; 1 dose 10 µM): 7/60
Positive Cytotoxic Effect (cell lines with percent growth < 0 / total) ([3]; 1 dose 10 µM): 49/60
number of cancer cell lines the compound was active against ([3]; 1 dose 10 µM): 55 cell lines
activity at 10 µM ([3]; Homo sapiens, 48 h, read-out: Mean Growth, %): -46.7%
activity at 10 µM ([3]; Homo sapiens, 48 h, read-out: Range of Growth, %): -99.5 to 75.9%
IC (TGI) ([3]; Homo sapiens, 48 h, read-out: TGI MG_MID60, average over all cell lines): 3.53 µM
GI50 ([3]; Homo sapiens, read-out: GI50 MG_MID60): 1.73 µM
GI50 ([3]; Homo sapiens, read-out: GI50 against all human tumor cell lines): < 3 µM
GI50 ([3]; Homo sapiens, read-out: GI50 against the most sensitive cell lines): 0.2 to 0.94 µM
GI50 (SF-539 (CNS cancer); SF-539): 1.52 µM
IC (TGI) (SF-539 (CNS cancer); SF-539, 48 h, read-out: TGI): 2.99 µM
GI50 (SN12C (Renal cancer)): 1.79 µM
IC (TGI) (SN12C (Renal cancer); 48 h, read-out: TGI): 3.31 µM
CC50 (SN12C (Renal cancer); read-out: LC50): 6.12 µM
GI50 ([4]; NCI-H23): 1.83 µM
IC (TGI) ([4]; NCI-H23, 48 h, read-out: TGI): 3.4 µM
IC (TGI) (OVCAR-4 (Ovarian cancer); OVCAR-4, 48 h): 3.39 µM
GI50 (OVCAR-4 (Ovarian cancer); OVCAR-4, read-out: GI50): 1.86 µM
CC50 (OVCAR-4 (Ovarian cancer); OVCAR-4, read-out: LC50 (the source's name)): 6.17 µM
GI50 (SK-MEL-2 (Melanoma); SK-MEL-2): 2.01 µM
IC (TGI) (SK-MEL-2 (Melanoma); SK-MEL-2, 48 h, read-out: TGI): 3.69 µM
CC50 (SK-MEL-2 (Melanoma); SK-MEL-2, read-out: LC50): 6.8 µM
GI50 (HS 578T (Breast cancer)): 1.87 µM
IC (TGI) (HS 578T (Breast cancer); 48 h, read-out: TGI): 4.39 µM
CC50 (HS 578T (Breast cancer); read-out: LC50): 15.9 µM
IC (TGI) (Leukemia subpanel; 48 h, read-out: TGI MG_MID): 5.18 µM
GI50 (Leukemia subpanel; read-out: GI50 MG_MID): 1.48 µM
CC50 (Leukemia subpanel; read-out: LC50 MG_MID): > 100 µM
GI50 (HCT-15 (Colon cancer); HCT-15): 1.44 µM
IC (TGI) (HCT-15 (Colon cancer); HCT-15, 48 h, read-out: TGI): 2.84 µM
CC50 (HCT-15 (Colon cancer); HCT-15, read-out: LC50): 5.59 µM
GI50 (MDA-MB-435 (Melanoma); MDA-MB-435): 1.87 µM
IC (TGI) (MDA-MB-435 (Melanoma); MDA-MB-435, 48 h, read-out: TGI): 3.49 µM
CC50 (MDA-MB-435 (Melanoma); MDA-MB-435, read-out: LC50 (the source's name)): 6.51 µM
GI50 [5]: 1.98 µM
IC (TGI) ([5]; 48 h, read-out: TGI): 3.8 µM
CC50 ([5]; read-out: LC50): 7.3 µM
Growth % of the Most Sensitive Cell Lines (HCC-2998 (Colon cancer); HCC-2998, 1 dose 10 µM): −93.75%
GI50 (HCC-2998 (Colon cancer); Homo sapiens, HCC 2998): 1.31 µM
IC (TGI) (HCC-2998 (Colon cancer); Homo sapiens, HCC 2998, 48 h, read-out: TGI): 2.76 µM
